The values that follow come from patent US5783568A, “Methods for treating cancer and other cell proliferative diseases” (Sugen, Inc., priority 1994, dated 1998).

“Also recorded” adds a separate entry of the source.

The subject of assay [1] is FGFR2 (bek). The assay can be described thus: Cross-linking (BS^3) of FGF receptors in CHO-K1 cells, receptor dimerization. The conditions noted are these: 0.1 nM aFGF, with or without 50 nM heparin. Format: cell-based, human. The procedure:
Parental (lanes 1-4) and mutant CHO cells (lanes 5-8) were incubated with either 50 nM heparin (lanes 2 and 6), 0.1 nM aFGF (lanes 3 and 7), or both (lanes 4 and 8), for 1 hour at 4° C. Cells were then treated with the covalent cross-linking agent BS^3 for […] at room temperature, solubilized and immunoprecipitated with anti-FGFR2 antibodies. The samples were analyzed by a gradient SDS gel (6-8%), transferred to nitrocellulose membranes and probed with anti-FGFR2 antibodies. M--FGFR monomers; D--FGFR dimers.
Cells grown in fibronectin-coated dishes were starved overnight in F-12 medium containing 0.5% FBS. Cells were then washed with ice-cold binding medium (F-12 medium containing 20 mM Hepes (pH 7.5) and 0.1% BSA), and incubated for 1 hour at 4° C. with either aFGF (0.1 nM), heparin (50 nM), or both. The cells were then washed twice with cold PBS and incubated with 1 mM BS^3 in PBS for 20 minutes at room temperature. The cross-linking reaction was quenched by the addition of 50 mM Tris-HCl and 100 mM glycine for 10 min at room temperature. […]
Full-length FGFR2 was transfected into two CHO cell lines; wild-type CHO-K1, and the mutant CHO-pgsD-677, which is defective in heparin sulfate expression at its cell-surface (Esko, 1991). […] Cells were then lysed, and immunoprecipitated FGFR2 was analyzed by SDS-PAGE followed by immunoblotting with anti-FGFR2 antibodies.

Assay [2] concerns FGFR2 (bek). The assay can be described thus: Tyrosine phosphorylation of FGFR2 in wild-type CHO-K1 cells. Format: cell-based, human. To be noted: 0.1 nM aFGF alone, 5 min at 37° C. The procedure:
(§1) Cells were lysed and the receptor was immunoprecipitated with anti-FGFR2 antibodies. Samples were then analyzed by SDS-PAGE, transferred to nitrocellulose membranes, and tyrosine-phosphorylated proteins were detected by immunoblotting with anti-phosphotyrosine antibodies.
(§2) Wild-type CHO cells (CHO-K1), as well as heparin sulfate-deficient mutant cells (CHO-pgsD-677) which were kindly provided by Prof. J. Esko (Esko, 1991), were cultured in F-12 medium containing 7.5% FBS, 1% Ampicillin/Streptomycin and 1% glutamine. Both CHO cell lines were co-transfected with the wild-type human FGFR2 (bek) DNA in the expression vector pMJ30 (Dionne et al., 1990) (40 μg/10 cm dish) and the pSVneo resistant gene (0.5 mg/10 cm dish), using the calcium phosphate method (Chen and Okayama, 1987). Geneticin (1 mg/ml) resistant clones were screened for expression of the receptor by immunoprecipitation and immunoblotting analysis using anti-FGFR2 antibodies.
(§3) Wild-type and mutant CHO cells were starved overnight in F-12 medium containing 0.5% FBS, and stimulated with either 0.1 nM aFGF, 50 nM heparin, or both, for 5 min at 37° C. Cells were lysed, immunoprecipitated with anti-FGFR2 antibodies and analyzed by immunoblotting with anti-phosphotyrosine (anti-PTyr) antibodies.

In assay [3] the test system is sFGFR (soluble extracellular domain of FGFR2). The assay can be described thus: Binding of sFGFR to a heparin-sepharose column. Also on record: species or system human.
Assay [4] relates to vascular endothelial cells. The conditions noted are these: cited from earlier work.
In assay [5] the target is T1, aFGF (Homo sapiens, UniProt P05230).
T1 construct: made in house; host or cells: E. coli
T1 sequence (P05230 whole entry): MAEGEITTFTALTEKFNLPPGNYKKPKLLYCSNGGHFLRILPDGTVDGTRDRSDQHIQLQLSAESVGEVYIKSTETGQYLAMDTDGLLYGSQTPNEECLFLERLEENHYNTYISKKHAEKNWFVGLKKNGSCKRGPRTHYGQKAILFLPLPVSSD
Nature of the assay: Isothermal titration calorimetry, binding to aFGF. To be noted: from ITC stoichiometry. For orientation: ITC needs no label: the signal is the heat of the interaction.

In assay [6] the test system is FGFR2 (bek). Nature of the assay: Tyrosine phosphorylation of FGFR2 in mutant (HSPG-deficient) CHO-pgsD-677 cells. Format: cell-based, human. To be noted: 0.1 nM aFGF, 50 nM heparin, 5 min at 37° C. The procedure: as §1, §2, §3
Assay [7] concerns the target T1, aFGF. To be noted: Mach et al., 1993; cited from earlier work.

Regarding “aFGF: aFGF was expressed in E. coli and purified by binding to a heparin-sepharose column”, the “receptor dimerization in CHO-K1 cells” value in the assay on FGFR2 (bek) [1] was “could induce receptor dimerization regardless of the presence of exogenous heparin”. Besides, in the assay on FGFR2 (bek) [2], the “FGFR2 autophosphorylation in CHO-K1 cells” value is “stimulation of FGFR2 autophosphorylation”.
Take heparin: the “binding of sFGFR to heparin-sepharose column” value in assay [3] is given as “could not be detected”. Besides, the “mitogenic effect of aFGF on vascular endothelial cells” value in assay [4] is listed as “potentiates the mitogenic effect of aFGF on vascular endothelial cells”. For the same substance, the “saccharide units of heparin per one bound aFGF” value on aFGF [5] is recorded as 4-5 saccharide units. Also, the “FGFR2 autophosphorylation in mutant (heparin-deficient) CHO cells” value with FGFR2 (bek) [6] is given as “required for significant levels of aFGF-induced FGFR2 autophosphorylation; also recorded: the addition of heparin is required for aFGF to activate FGFR”. Besides, the “binding to aFGF” value on aFGF [7] is reported as “relatively high affinity, in a multivalent fashion”.
